In ChEMBL document CHEMBL4184308, “Melanogenesis inhibitory pregnane glycosides from Cynanchum atratum” (Bioorg Med Chem Lett, 2018):
The source made the active and inactive calls. No cut-off for these calls is given here.

Experiments:
[1] = system: B16; test: Inhibition of melanin production in alpha-MSH-stimulated mouse B16 cells incubated for 24 hrs followed by alpha-MSH stimulation for 72 hrs in presence of compound; type: functional, cell-based
[2] = molecular target: T1, Tyrosinase (Mus musculus) (UniProt P11344); test: Inhibition of mouse tyrosinase
T1 sequence (whole entry): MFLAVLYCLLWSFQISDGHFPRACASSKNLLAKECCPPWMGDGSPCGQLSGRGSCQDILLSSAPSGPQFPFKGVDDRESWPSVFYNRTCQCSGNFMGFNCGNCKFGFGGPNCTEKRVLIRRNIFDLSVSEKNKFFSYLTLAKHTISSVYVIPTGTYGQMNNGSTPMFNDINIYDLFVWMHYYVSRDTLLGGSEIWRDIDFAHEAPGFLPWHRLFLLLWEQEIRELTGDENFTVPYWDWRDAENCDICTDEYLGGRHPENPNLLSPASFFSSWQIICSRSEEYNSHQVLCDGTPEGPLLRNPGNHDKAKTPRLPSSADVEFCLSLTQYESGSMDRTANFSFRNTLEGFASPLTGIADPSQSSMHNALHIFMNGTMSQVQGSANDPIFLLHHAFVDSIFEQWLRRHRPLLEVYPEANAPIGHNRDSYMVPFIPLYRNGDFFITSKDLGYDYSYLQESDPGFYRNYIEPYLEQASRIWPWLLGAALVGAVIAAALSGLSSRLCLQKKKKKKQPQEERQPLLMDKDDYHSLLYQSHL

[3] = molecular target: T1, Tyrosinase (Mus musculus); test: Inhibition of mouse B16 cells derived tyrosinase at 30 uM

SMILES	IC50 [1] [µM]	inhibition [1]	inhibition [2]	inhibition [3]
CO[C@H]1C[C@H](O[C@@H]2CC3=CC[C@H]4C(=O)[C@@](C)(C5=CC(=O)O[C@H]5C)CC[C@@H]4[C@@]3(C)C[C@H]2O)O[C@H](C)[C@H]1O	> 50	–	–	–
CO[C@H]1[C@@H](O)[C@H](O[C@H]2CC[C@@]3(C)C(=CC[C@H]4C(=O)O[C@@H]5CO[C@]6(C)OC=C(CC[C@@H]43)[C@H]56)C2)O[C@H](C)[C@H]1O[C@H]1C[C@H](OC)[C@H](O)[C@H](C)O1	19	Dose-dependent effect	–	–
CO[C@H]1[C@@H](O)[C@H](O[C@H]2CC[C@@]3(C)C(=CC[C@H]4C(=O)O[C@@H]5CO[C@]6(C)OC=C(CC[C@@H]43)[C@H]56)C2)O[C@H](C)[C@H]1O[C@H]1C[C@H](OC)[C@H](O[C@H]2C[C@H](OC)[C@H](O)[C@@H](C)O2)[C@H](C)O1	4	Dose-dependent effect	–	–
CC(=O)c1c(O)cccc1O	–	–	Active	–
CC(=O)c1cc(O)ccc1O	–	–	Active	–
CO[C@H]1O[C@@]2(C)OC[C@H]3OC(=O)[C@@H]4CC=C5C[C@@H](O[C@@H]6O[C@H](C)[C@@H](O)[C@H](OC)[C@H]6O)CC[C@]5(C)[C@H]4C/C=C/1[C@H]32	41	–	–	–
CO[C@H]1C[C@H](O[C@@H]2[C@H](C)O[C@@H](O[C@H]3[C@@H](OC)C[C@H](O[C@@H]4CC5=CC[C@H]6C(=O)[C@@](C)(C7=CC(=O)O[C@H]7C)CC[C@@H]6[C@@]5(C)C[C@H]4O)O[C@@H]3C)C[C@@H]2OC)O[C@H](C)[C@H]1O	21	Dose-dependent effect	–	inactive
CO[C@H]1C[C@H](O[C@@H]2[C@H](C)O[C@@H](O[C@H]3[C@@H](OC)C[C@H](O[C@@H]4CC5=CC[C@H]6C(=O)[C@@](C)(C7=CC(=O)O[C@@H]7C)CC[C@@H]6[C@@]5(C)C[C@H]4O)O[C@@H]3C)C[C@@H]2OC)O[C@H](C)[C@H]1O	33	Dose-dependent effect	–	–
CO[C@@H]1[C@@H](O)[C@H](O[C@H]2CC[C@@]3(C)C(=CC[C@H]4C(=O)O[C@@H]5CO[C@]6(C)OC(=O)/C(=C/C[C@@H]43)[C@H]56)C2)O[C@H](C)[C@H]1O	> 50	–	–	–
